In patent US20110110886A1, “SMALL MOLECULE INHIBITORS OF AUTOTAXIN AND METHODS OF USE” (Yale University, priority 2008, published 2011):

Columns and labels:
[1] = tested on: human melanoma cell line A2058; assay: Melanoma invasion and metastasis in vivo, nude mice with subcutaneous A2058; conditions: oral gavage of bithionol-cyclodextrin suspension
Procedure: (§1) Nude mice were inoculated with human melanoma cell line A2058 subcutaneously in the right flank and observed until the tumor was palpable (about 5-8 days). The mice were then treated with oral gavage of a bithionol-cyclodextrin suspension (A-D) or a cyclodextrin suspension alone (E-H). […] Two of the untreated mice developed large tumors in the right hindquarter (cyan arrow, E) that grossly invaded the right gluteous maximus and could not be dissected without amputation (E&F). […] Of the remaining untreated mice, one developed a modest sized tumor with microscopic evidence of invasion, and a one developed a tumor without gross or microscopic evidence of invasive tumor.
as §1, with “The present invention was also tested in vivo. Nude” for “Nude”

[2] = oral doses of 50 mg/kg in 3 divided alternate daily doses for 5 days; rabbits, dogs, and humans; cited from earlier work
[3] = target: T1, ATX (recombinant full-length human ATX), lysoPLD activity (Homo sapiens, UniProt Q13822); assay: Steady-state ATX lysoPLD activity with fluorescent LPC analogue FS-3; type: biochemical; conditions: for type of inhibition of ATX lysoPLD activity: substrate FS-3; for Ki: substrate FS-3, 37° C.
T1 construct: consistent with a mature, glycosylated form of the enzyme; TEV cleavage site (C); 9-His (C); 6-His (C); made in house; host or cells: High Five insect cells (baculovirus, p-DEST-8)
Procedure: Protein expression and purification: The full length human NPP2 gene (NCBI accession #BC034961) followed by a C-terminal TEV cleavage site and a 9-His and 6-His purification tag was cloned and transferred into a p-DEST-8 baculovirus shuttle vector (Invitrogen), and bacmid DNA was generated by standard methods. […] Three days post infection, the supernatant was adjusted to a final concentration of 50 mM Tris pH 8.0, 5 mM CaCl2, and 1 mM NiSO4 and stirred for 10 min. at room temperature. […] Purified ATX was concentrated to approximately 10 mg mL^−1, and dialyzed into the appropriate assay buffer.
Fluorescence was measured (λex=485 nm, λem=520 nm) on a SpectraMax Gemini XPS at 37° C. under buffer conditions similar to the PDE assays but lacking BSA. […] The spontaneous reaction rates were subtracted from the enzyme catalyzed rates.
The steady-state rates (v) of product formation were obtained by fitting the time courses of absorbance or fluorescence change to linear functions. […] FS-3 hydrolysis product formation was quantitated in arbitrary fluorescence units.
The Michaelis constants (KM) and the catalytic turnover rate constants (kcat) were obtained by fitting the [substrate]-dependence of v to a rectangular hyperbola in the form of the Briggs-Haldane equation: […]
in which [S] is [pNP-TMP] or [FS-3]. Inhibitors were treated as reversible inhibitors and analyzed according to the general steady-state linear enzyme inhibitor scheme:
in which E is ATX, S is pNP-TMP or FS-3 substrate, P are the hydrolysis products, and K1 is the dissociation equilibrium constant for inhibitor binding. The values of α and K1 were obtained by fitting the steady-state rates of product formation (v) to the general inhibition equation: […]
in which [I] is the inhibitor concentration, kcat is the maximum catalytic turnover rate, and KS is the Michaelis constant of the substrate obtained in the absence of inhibitor.
The type of inhibition (competitive, noncompetitive, or uncompetitive) depends on the value of α.
The type of inhibition was assigned if the difference between the r^2 values of the fits to the general inhibition equation (Eq 2) and the specific inhibition (i.e. competitive, noncompetitive or uncompetitive) equations was less than 0.01.

ATX lyso-PLD activity = target: T2, ATX lyso-PLD activity (Homo sapiens, UniProt Q13822); assay: Time course assay of ATX lyso-PLD activity (FS-3 fluorescent product) with or without 10 μM compound over 30 minutes; type: biochemical; conditions: 10 μM inhibitor, 30 minute interval, 300 nM ATX
T2 construct: consistent with a mature, glycosylated form of the enzyme; TEV cleavage site (C); 9-His (C); 6-His (C); made in house; host or cells: High Five insect cells (baculovirus, p-DEST-8)
Procedure: C. Structure of hexachlorophene, merbromin. Bithionol and their analogs -2,2′-Methylenebis(4-chlorophenol), Eosin Y and RJC 03297, respectively. D. Structure of NSC 48300 and its analogs. […] The assay conditions are 300 nM ATX in the presence or absence of 10 μM compound over 30 minutes.
Inhibitor screen: High throughput screens were performed against two libraries: the GenPlus library of 960 compounds (NINDS Custom Collection, MicroSource Discovery systems) and the NCI Diversity Set (1990 compounds, see http://dtp.nci.nih.gov/branches/dscb/repo_open.html). The screens were performed at the Yale Center for Chemical Genomics utilizing a Tecan Aquarius robot in combination with an Aquarius liquid handler and a Freedom EVO Workstation. A V&P Scientific 384 pin tool transferred small molecules (10 mM stock) from library plates into the optically clear, 384 well assay plates, and an Aquarius liquid handling robot transferred protein into the individual wells. The assays were performed in a total volume of 50 μL in assay buffer (50 mM Tris, 140 mM NaCl, 1 mM MgCl2, and 5 mM CaCl2, pH 8.0). Absorbance of p-nitrophenylate, the product of ATX's PDE activity with pNP-TMP (discussed below) was measured at 405 nm over a period of 12 hours. To monitor lysophospholipase-D activity, the fluorescence of FS-3 (625 nM or 4 μM) was monitored (λex=480 nm, λem=535 nm) in assay buffer over a period of 30 minutes in the presence of 300 nM ATX and 10 μM compound. The assay was evaluated using a statistical Z′ analysis, a quantitative measure to determine assay robustness for single point analysis on a high throughput screening platform. The Z′ analysis was performed from 32 maximum control values (c+) and 32 minimum controls (c−) on each plate. Assays consistently performed with Z′ factors of 0.75-0.85, higher than the minimum 0.5 considered robust.
Inhibition of ATX lyso-PLD activity by several NSC48300 analogs was qualitatively compared in a time course assay by measuring the production of fluorescent product in the presence or absence of 10 µM inhibitor over a 30 minute interval.

Row | Compound | microscopic appearance of the tumors [1] | gross evidence of metastatic melanoma upon necropsy ([1]; 5 mice) | serum levels [2] [µM] | type of inhibition of ATX lysoPLD activity [3] | Ki [3] [µM] | less product formation when compared to the enzyme alone (ATX lyso-PLD activity) [%]
1 | Oc1c(Cl)cc(Cl)cc1Sc1cc(Cl)cc(Cl)c1O [Bithionol] | self-contained balls of tumor cells (C) with a pushing border | lacked gross evidence of metastatic melanoma | 140 to 550 | competitively inhibits | 66 | 
2 | O=[As](O)(O)c1ccc(Cc2ccc([As](=O)(O)O)cc2)cc1 [NSC 48300] |  |  |  | competitively inhibits | 0.24 | 98.0
